The source of these data is ChEMBL document CHEMBL1909046, “DrugMatrix in vitro pharmacology data”.

As a reminder, the IC50 is the concentration needed to halve the response being measured. In general, Ki refers to a dissociation constant, usually derived from enzyme kinetics or from competition with a known ligand.

Series [1] has as its target T1, Substance-K receptor (Homo sapiens, UniProt P21452). Also: in other assays of this panel Not Active means under 50% inhibition at 10 µM.
T1 sequence (P21452 whole entry): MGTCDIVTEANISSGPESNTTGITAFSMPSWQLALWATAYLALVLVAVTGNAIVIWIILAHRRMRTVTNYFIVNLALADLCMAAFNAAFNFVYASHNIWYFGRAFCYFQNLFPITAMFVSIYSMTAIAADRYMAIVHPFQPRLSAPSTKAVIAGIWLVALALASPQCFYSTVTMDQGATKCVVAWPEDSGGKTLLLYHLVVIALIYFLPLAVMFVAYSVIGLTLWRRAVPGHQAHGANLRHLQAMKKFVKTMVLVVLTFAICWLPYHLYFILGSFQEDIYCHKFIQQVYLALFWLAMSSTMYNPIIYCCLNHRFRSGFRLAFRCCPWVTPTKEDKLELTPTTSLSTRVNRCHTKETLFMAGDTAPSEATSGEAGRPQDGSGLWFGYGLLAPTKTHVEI
It is filed as cell membranes, CHO, Membrane.

Series [2] deals with T2, Interstitial collagenase (Homo sapiens, UniProt P03956).
T2 sequence (P03956 whole entry): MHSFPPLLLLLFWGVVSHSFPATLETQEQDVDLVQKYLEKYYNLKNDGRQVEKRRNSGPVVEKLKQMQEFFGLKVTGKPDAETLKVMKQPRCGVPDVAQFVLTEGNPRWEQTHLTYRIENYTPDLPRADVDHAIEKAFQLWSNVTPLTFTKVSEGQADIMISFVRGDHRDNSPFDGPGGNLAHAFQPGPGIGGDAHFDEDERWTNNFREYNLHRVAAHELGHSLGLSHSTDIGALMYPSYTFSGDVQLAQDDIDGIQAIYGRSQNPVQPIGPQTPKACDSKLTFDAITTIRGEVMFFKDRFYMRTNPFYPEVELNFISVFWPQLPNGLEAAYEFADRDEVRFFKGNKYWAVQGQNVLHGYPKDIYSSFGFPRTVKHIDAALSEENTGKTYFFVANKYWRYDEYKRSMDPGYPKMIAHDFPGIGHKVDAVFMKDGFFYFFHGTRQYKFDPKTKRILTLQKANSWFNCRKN
The experiment in a line: biochemical. The class given is tissue-based, Rheumatoid synovial fibroblasts.

The target in series [3] is T3, Muscarinic acetylcholine receptor M2 (Homo sapiens, UniProt P08172). Also: in other assays of this panel Not Active means under 50% inhibition at 10 µM.
T3 sequence (P08172 whole entry): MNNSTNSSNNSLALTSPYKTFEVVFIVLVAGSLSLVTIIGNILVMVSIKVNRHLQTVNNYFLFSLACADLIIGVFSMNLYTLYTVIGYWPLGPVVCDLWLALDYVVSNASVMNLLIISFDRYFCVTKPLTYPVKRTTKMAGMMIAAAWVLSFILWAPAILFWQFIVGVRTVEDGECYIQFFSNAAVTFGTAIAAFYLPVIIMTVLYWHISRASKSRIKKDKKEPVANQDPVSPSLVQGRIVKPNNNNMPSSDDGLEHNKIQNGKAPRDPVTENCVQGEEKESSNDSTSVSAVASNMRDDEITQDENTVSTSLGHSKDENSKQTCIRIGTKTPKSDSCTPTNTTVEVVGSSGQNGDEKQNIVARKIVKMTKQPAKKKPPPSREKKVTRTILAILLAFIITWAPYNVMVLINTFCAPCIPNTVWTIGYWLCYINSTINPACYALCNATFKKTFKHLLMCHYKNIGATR
The class given is cell membranes, CHO-K1, Membrane. The settings on record: cho-k1.

In series [4] the target is Tyrosine-protein kinase Lck (Homo sapiens, UniProt P06239). The experiment in a line: DRUGMATRIX: Protein Tyrosine Kinase, LCK enzyme inhibition (substrate: Poly(Glu:Tyr)). It is filed as cell-based, Insect cells. The settings on record: insect cells, Not Active = under 50% inhibition at 10 µM.
The target in series [5] is T4, C-X-C chemokine receptor type 2 (Homo sapiens, UniProt P25025). Also: in other assays of this panel Not Active means under 50% inhibition at 10 µM.
T4 sequence (P25025 whole entry): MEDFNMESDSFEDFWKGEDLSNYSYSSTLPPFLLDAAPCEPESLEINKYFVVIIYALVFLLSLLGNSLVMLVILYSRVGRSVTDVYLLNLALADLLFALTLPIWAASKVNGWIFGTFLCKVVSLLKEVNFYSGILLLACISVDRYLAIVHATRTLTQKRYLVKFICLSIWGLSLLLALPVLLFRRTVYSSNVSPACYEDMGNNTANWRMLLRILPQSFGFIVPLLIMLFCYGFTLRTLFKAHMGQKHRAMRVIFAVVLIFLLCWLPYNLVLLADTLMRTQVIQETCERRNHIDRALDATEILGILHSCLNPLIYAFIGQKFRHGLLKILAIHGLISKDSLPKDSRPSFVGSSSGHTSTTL
It is filed as cell membranes, Membrane. The settings on record: cho-k1.

Series [6] concerns the target Cytochrome P450 2E1 (Homo sapiens, UniProt P05181). The settings on record: bti-tn-5b1-4. Also: in other assays of this panel Not Active means under 50% inhibition at 10 µM.
For series [7], the target named is T5, Vasoactive intestinal polypeptide receptor 1 (Homo sapiens, UniProt P32241). Also: in other assays of this panel Not Active means under 50% inhibition at 10 µM.
T5 sequence (P32241 whole entry): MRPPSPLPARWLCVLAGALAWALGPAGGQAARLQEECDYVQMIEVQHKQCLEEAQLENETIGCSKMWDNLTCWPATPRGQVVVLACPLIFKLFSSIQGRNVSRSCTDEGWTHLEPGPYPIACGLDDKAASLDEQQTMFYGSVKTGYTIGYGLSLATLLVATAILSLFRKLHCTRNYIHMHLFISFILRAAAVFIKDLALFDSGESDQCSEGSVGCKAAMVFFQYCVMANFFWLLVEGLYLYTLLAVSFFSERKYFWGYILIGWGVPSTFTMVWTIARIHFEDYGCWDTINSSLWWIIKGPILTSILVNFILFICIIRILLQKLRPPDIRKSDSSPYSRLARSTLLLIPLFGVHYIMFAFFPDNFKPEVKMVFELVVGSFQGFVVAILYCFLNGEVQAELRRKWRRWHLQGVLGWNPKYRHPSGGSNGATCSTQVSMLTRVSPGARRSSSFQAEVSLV
The class given is cell membranes, Membrane. The settings on record: ht-29.

Tyrosine-protein kinase Lck, sequence (P06239 whole entry): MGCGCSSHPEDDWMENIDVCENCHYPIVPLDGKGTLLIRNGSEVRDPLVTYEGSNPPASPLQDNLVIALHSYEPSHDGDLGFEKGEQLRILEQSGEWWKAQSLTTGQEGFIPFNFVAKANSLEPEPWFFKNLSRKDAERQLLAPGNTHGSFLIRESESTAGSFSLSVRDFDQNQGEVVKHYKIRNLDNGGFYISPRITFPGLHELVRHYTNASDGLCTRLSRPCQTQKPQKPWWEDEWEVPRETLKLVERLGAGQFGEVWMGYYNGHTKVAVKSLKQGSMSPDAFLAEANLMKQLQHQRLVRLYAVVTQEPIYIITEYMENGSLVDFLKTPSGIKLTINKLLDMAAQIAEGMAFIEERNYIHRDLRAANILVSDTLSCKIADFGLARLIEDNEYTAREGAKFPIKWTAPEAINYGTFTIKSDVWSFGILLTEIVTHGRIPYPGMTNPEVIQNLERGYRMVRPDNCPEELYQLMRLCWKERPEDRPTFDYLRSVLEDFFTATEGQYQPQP
Cytochrome P450 2E1, sequence (P05181 whole entry): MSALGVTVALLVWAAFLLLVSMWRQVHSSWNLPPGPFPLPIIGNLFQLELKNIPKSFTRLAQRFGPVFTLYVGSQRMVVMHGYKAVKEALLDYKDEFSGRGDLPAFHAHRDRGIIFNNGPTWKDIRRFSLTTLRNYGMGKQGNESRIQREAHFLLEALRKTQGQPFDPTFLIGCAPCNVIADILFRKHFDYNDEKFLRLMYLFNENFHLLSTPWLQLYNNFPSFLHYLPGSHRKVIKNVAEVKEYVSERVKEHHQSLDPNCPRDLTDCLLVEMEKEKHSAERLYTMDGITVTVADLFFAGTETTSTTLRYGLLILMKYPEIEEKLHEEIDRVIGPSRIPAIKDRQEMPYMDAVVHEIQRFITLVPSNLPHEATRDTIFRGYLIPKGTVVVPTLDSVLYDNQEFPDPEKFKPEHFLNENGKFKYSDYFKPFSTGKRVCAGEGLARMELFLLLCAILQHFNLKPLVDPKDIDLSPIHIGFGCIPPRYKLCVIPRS

On to `CC1CCC(NC(=O)N(CCCl)N=O)CC1` (stereo not drawn) [SEMUSTINE], for which the IC50 entry in series [1] (cho), in series [2], in series [3], in series [4], in series [5] and in series [6] was “Not Active” each time. Also, the IC50 result in series [7] is given as “Not Active”. The Ki entry in series [6] is reported as “Not Active”.

Take `O=C1C[C@@H]2OCC=C3CN4CC[C@]56c7ccccc7N1[C@H]5[C@H]2[C@H]3C[C@H]46` [STRYCHNINE]: the IC50 result in series [1] (cho), in series [2], in series [3], in series [4], in series [5] and in series [6] was “Not Active” throughout. Besides, the IC50 entry in series [7] was “Not Active”. Also, the Ki result in series [6] is reported as “Not Active”.

Consider `C[N+](C)(C)CCOC(=O)CCC(=O)OCC[N+](C)(C)C.[Cl-].[Cl-]` [SUCCINYLCHOLINE CHLORIDE], for which the IC50 entry in series [1] (cho), in series [2], in series [3], in series [4], in series [5] and in series [6] was “Not Active” throughout. Moreover, in series [7], the concentration for half-maximal inhibition (IC50) entry is “Not Active”. In addition, the Ki entry in series [6] is reported as “Not Active”.

Turning to `Nc1ccc(S(=O)(=O)NC(=O)c2ccccc2)cc1` [SULFABENZAMIDE], the half-inhibitory concentration (IC50) entry in series [1] (cho), in series [2], in series [3], in series [4], in series [5] and in series [6] was “Not Active” throughout. Besides, the IC50 entry in series [7] is listed as “Not Active”. Moreover, in series [6], the Ki result is recorded as “Not Active”.

As to `CCCCCCCCNC(C)C(O)c1ccc(SC(C)C)cc1` (stereo not drawn) [SULOCTIDIL], the IC50 in series [1] (read-out: IC50) is 6.79 µM; in series [2], “Not Active”; in series [3] it was “Not Active”; in series [4], “Not Active”; in series [5], “Not Active”; in series [6], “Not Active”. Also, the IC50 entry in series [7] is listed as “Not Active”. The Ki was 2260 nM in series [1] (read-out: Ki) and “Not Active” in series [6].

Take `O=c1[nH]c(=O)n(C2CCCO2)cc1F` (stereo not drawn) [TEGAFUR]: the IC50 result in series [1] (cho), in series [2], in series [3], in series [4], in series [5] and in series [6] was “Not Active” each time. Besides, the IC50 result in series [7] was “Not Active”. In addition, the Ki result in series [6] is given as “Not Active”.

Consider `CC(=N)S` [THIOACETAMIDE], for which the IC50 entry in series [1] (cho), in series [2], in series [3], in series [4], in series [5] and in series [6] was “Not Active” in each case. In addition, in series [7], the IC50 result was “Not Active”. The Ki entry in series [6] is reported as “Not Active”.

Regarding `Cc1ccc(C(=O)c2ccc(CC(=O)O)n2C)cc1` [TOLMETIN], the IC50 entry in series [1] (cho), in series [2], in series [3], in series [4], in series [5] and in series [6] was “Not Active” in each case. Moreover, the IC50 result in series [7] is listed as “Not Active”. The Ki entry in series [6] is given as “Not Active”.

As to `CC(=O)OCC(COC(C)=O)OC(C)=O` [TRIACETIN], the IC50 result in series [1] (cho), in series [2], in series [3], in series [4], in series [5] and in series [6] was “Not Active” each time. Besides, in series [7], the IC50 result is reported as “Not Active”. Also, the Ki result in series [6] is reported as “Not Active”.

For `CN1CCN(CCCN2c3ccccc3Sc3ccc(C(F)(F)F)cc32)CC1` [TRIFLUOPERAZINE], the IC50 result in series [1] (cho), in series [2], in series [3], in series [4], in series [5] and in series [6] was “Not Active” in each case. For the same molecule, in series [7], the IC50 entry is reported as “Not Active”. Besides, the Ki entry in series [6] is “Not Active”.

Regarding TRANSPLATIN, the IC50 entry is “Not Active” in series [1] (cho); “Not Active” in series [2]; “Not Active” in series [3]; 2720 nM in series [4] (read-out: IC50); “Not Active” in series [5]; “Not Active” in series [6]. In series [7], the IC50 entry is given as “Not Active”. Besides, the inhibition constant Ki result in series [1] (cho), in series [2], in series [3], in series [5], in series [6] and in series [7] was “Not Active” each time.

For the molecule ZIRCONIUM(IV) CHLORIDE, the IC50 result in series [1] (cho), in series [2], in series [3], in series [4], in series [5] and in series [6] was “Not Active” each time. Further, the IC50 result in series [7] was “Not Active”. Further, the Ki entry in series [1] (cho), in series [2], in series [3], in series [4], in series [5] and in series [6] was “Not Active” throughout. The Ki result in series [7] is “Not Active”.
